{"source": "paper PMC11094307", "about": "“Marine-derived EGFR inhibitors: novel compounds targeting breast cancer growth and drug resistance” (Frontiers in Pharmacology, 2024)", "key": {"A549 cells": {"system": "A549 cells", "test": "MTT assay, A549", "type": "cell-based, human", "settings": "A549 (high EGFR-expressing), 10 μM", "procedure": "(§1) The cell lines MCF-7 and A431 were cultured in Dulbecco’s Modified Eagle’s Medium (DMEM, Gibco, USA), while HL-60, H1299, and A549 cells were maintained in RPMI-1640 medium (Gibco, USA). Both mediums were enriched with 10% fetal bovine serum and 1% penicillin/streptomycin. […] All cell cultures were incubated at 37°C in an atmosphere containing 5% CO2.\n(§2) Cells in the exponential growth phase were seeded into 96-well plates and allowed to adhere overnight. Subsequently, they were treated in triplicate with various concentrations of the compounds (0, 1.56, 3.13, 6.25, 12.5, 25, 50, 100 µM), […]. After 24 h, 20 µL of Methyl-thiazolyldiphenyl-tetrazolium bromide (MTT, 5 mg/mL, Thermo Fisher Scientific) was added to each well and incubated for a minimum of 4 h. Following the incubation, the medium containing the compounds and MTT was removed from each well, and 200 µL of dimethyl sulfoxide (DMSO) was added. The plates were then shaken for 10 min at 37°C to dissolve the formazan crystals. The absorbance was measured using a microplate reader (BioTek Synergy 4) at a wavelength of 490 nm."}, "MCF-10A cells": {"system": "MCF-10A cells", "test": "MTT assay, MCF-10A", "type": "cell-based, human", "settings": "MCF-10A (non-tumorigenic epithelial), 10 μM", "procedure": "as §1, §2"}, "A431 cells": {"system": "A431 cells", "test": "MTT assay, A431", "type": "cell-based, human", "settings": "A431 (high EGFR-expressing), 10 μM", "procedure": "as §1, §2"}, "PARP1": {"system": "PARP1", "test": "Western blotting of MCF-7 lysates, PARP1", "type": "cell-based, human", "settings": "for PARP1 WB Normalized: control 0 µM 1.034604877", "procedure": "MCF-7 cell lysates were prepared by rinsing the cells twice with PBS and then solubilizing them in lysis buffer (NP40 supplemented with protease and phosphatase inhibitor cocktails) on ice. The solubilization process involved rotating the lysis buffer/cell mixture end over end for 10 min at 4°C. After centrifugation for 10 min at 4°C to remove insoluble material, the protein concentration of the solubilized protein was determined using a BCA assay. Subsequently, samples were diluted in SDS sample buffer. Equivalent amounts of protein were separated by SDS-PAGE, transferred to PVDF membranes, and probed with the indicated antibody. Prior to incubation with primary antibodies overnight at 4°C, the membranes were blocked with 5% skim milk-TBST. The antibodies and their sources were as follows: PARP1 (1:500, Santa Cruz Biotechnology), Cleaved Caspase-3 (1:1000, Cell Signaling Technology), BAX (1:500, Santa Cruz Biotechnology), BCL-2 (1:500, Santa Cruz Biotechnology), and GAPDH (1:500, Santa Cruz Biotechnology). Following incubation with horseradish peroxidase-conjugated goat anti-mouse or goat anti-rabbit secondary antibody (Santa Cruz Biotechnology), the detected proteins were visualized using the Pierce Enhanced Chemiluminescence (ECL) reagent and a UV Products imaging system. Band intensities were quantified using the National Institutes of Health ImageJ software."}, "MCF-7 cells [1]": {"system": "MCF-7 cells", "test": "Cell cycle analysis by flow cytometry (PI)", "type": "cell-based, human", "settings": "20 μM, 24 h", "procedure": "After 24 h of treatment with various concentrations of compounds, MCF-7 cells were harvested and washed twice with phosphate-buffered saline (PBS). For cell cycle analysis, the cells were initially fixed with 70% ethanol at 4°C overnight and subsequently washed with PBS. The fixed cells were then resuspended in 1× PBS containing 0.5% Triton X-100, 50 μg/mL propidium iodide (PI), and 50 μg/mL DNase-free RNase A, and incubated at 37°C for 30 min in darkness. Following incubation, cell cycle distribution was assessed using a BD FACSCanto™ flow cytometer."}, "EGFR kinase domain": {"target": "T1, EGFR kinase domain (Homo sapiens, UniProt P00533)", "T1 construct": "the intracellular tyrosine kinase (TK) domain of EGFR, tagged with GST; purchased Sinobiological, China", "T1 sequence (P00533 712-979 limits assumed)": "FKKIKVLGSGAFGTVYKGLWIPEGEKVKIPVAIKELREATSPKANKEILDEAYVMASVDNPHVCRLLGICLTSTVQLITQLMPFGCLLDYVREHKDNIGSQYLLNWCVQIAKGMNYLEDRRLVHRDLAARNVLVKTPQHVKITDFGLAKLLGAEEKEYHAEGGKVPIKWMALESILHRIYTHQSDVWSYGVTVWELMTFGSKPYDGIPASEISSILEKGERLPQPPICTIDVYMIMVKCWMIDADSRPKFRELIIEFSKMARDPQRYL", "test": "Differential Scanning Fluorimetry (DSF)", "type": "binding", "settings": "10 µM; 52.6°C at 0 µM", "procedure": "In the Differential Scanning Fluorimetry (DSF) study, concentrations of Tandyukisin-1.3, 2.5, 5, and 10 µM-were incubated with 0.05 mg/mL of the EGFR kinase domain. A control sample, containing only 5% DMSO, was used alongside the EGFR kinase domain. The thermal stability of the EGFR kinase domain was assessed using PR NT.48 (NanoTemper). The assay conditions were set to a temperature range of 25°C–95°C with a ramp rate of 1 °C/min."}, "EGFR L858R": {"target": "T2, EGFR L858R (Homo sapiens, UniProt P00533, L858R)", "T2 construct": "purchased Promega Corporation, USA", "T2 sequence (P00533 25-1210 L858R)": "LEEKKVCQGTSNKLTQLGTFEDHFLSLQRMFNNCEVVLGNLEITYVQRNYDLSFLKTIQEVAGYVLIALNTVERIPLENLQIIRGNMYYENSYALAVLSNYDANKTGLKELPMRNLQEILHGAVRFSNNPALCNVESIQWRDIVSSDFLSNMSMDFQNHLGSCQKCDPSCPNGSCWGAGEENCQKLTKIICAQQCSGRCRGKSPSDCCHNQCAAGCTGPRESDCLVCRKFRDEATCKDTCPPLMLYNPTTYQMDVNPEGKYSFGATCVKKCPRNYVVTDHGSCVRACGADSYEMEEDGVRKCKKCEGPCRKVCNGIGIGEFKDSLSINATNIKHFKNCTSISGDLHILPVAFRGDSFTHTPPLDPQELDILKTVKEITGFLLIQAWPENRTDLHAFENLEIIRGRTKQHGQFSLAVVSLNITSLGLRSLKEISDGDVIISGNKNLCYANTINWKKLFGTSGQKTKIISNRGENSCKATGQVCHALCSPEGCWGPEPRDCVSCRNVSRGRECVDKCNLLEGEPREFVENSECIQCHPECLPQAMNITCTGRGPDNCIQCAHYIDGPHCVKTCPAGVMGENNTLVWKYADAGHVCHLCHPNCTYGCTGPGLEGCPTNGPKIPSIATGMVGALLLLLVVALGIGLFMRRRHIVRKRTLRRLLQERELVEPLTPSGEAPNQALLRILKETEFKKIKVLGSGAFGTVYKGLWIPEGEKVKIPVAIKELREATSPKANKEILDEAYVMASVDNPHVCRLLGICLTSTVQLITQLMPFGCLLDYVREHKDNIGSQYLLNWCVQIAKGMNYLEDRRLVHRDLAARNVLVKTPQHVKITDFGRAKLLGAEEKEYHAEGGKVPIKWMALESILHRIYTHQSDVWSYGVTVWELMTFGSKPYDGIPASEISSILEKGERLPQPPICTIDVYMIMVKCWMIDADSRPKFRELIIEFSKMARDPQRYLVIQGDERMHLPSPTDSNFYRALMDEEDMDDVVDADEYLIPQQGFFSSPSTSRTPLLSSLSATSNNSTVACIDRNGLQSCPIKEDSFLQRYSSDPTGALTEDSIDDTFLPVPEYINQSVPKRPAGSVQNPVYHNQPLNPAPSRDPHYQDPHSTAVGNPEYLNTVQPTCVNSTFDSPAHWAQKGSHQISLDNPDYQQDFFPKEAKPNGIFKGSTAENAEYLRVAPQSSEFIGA", "test": "Kinase inhibition assay (ADP-Glo, Promega)", "type": "biochemical", "settings": "in vitro kinase assay; read-out: IC50 against EGFR L858R", "procedure": "The extracellular ligand-binding domain of EGFR, tagged with His, and the intracellular tyrosine kinase (TK) domain of EGFR, tagged with GST, were acquired from Sinobiological, China. […] Cell lines including MCF-7, A549, A431, H1299, HL-60, and MCF-10A were obtained from the China Infrastructure Cell Line Resources.\nThe experiments were conducted in accordance with the manufacturer’s guidelines (Promega). The procedure began with a kinase reaction, where 5 μL of 1× kinase buffer was utilized, and the mixture was incubated at room temperature for 60 min. This step was followed by the addition of 5 μL of ADP-Glo™ reagent to terminate the kinase reaction and to deplete any remaining ATP, with a subsequent incubation period of 40 min at room temperature. Next, 10 μL of kinase detection reagent was added to convert ADP back into ATP, and luciferase along with luciferin was introduced to facilitate ATP detection. This mixture was then incubated at room temperature for an additional 30 min. Detection was carried out using a BioTek Synergy4 instrument, and data analysis, including curve fitting and presentation, was performed using GraphPad Prism version 5.0.\nAll experiments were repeated at least three times, and the data are presented as mean ± standard deviation (SD). The statistical analyses were performed using Origin. EC50 or IC50 values were obtained by fitting the data to a four-parameter Hill model of the graph of log dose against percentage cell viability or inhibition from at least three sets of experiments. Difference between two groups were analyzed by Student’s t test (two-sided) and significance was set at p < 0.05. The specific details about statistical methods are introduced in respective figure legends."}, "MCF-7 cells [2]": {"system": "MCF-7 cells", "test": "Annexin V-FITC/PI apoptosis analysis", "type": "cell-based, human", "settings": "24 h", "procedure": "Apoptosis was evaluated using the Annexin V-FITC/PI Apoptosis Detection Kit (Vazyme). The harvested MCF-7 cells were first resuspended in 1× binding buffer from the kit to achieve a final concentration of 1×10^6 cells/ml. Next, 100 μL of the cell suspension, 5 μL of Annexin V, and 10 μL of PI were mixed and incubated in the dark for 15 min. Subsequently, 400 μL of 1× binding buffer was added to the mixture in preparation for apoptosis analysis."}}}
{"smiles": "COC(=O)C/C(C)=C/C(=O)O[C@@H]1C[C@@H](C)[C@H]2[C@@H](C=C[C@H](CC(C)C)[C@]2(C)C(=O)/C=C\\O)[C@@H]1O", "note": "[Tandyukisin]", "values": [{"measurement": "cell lethality percentage", "setting": "A549 cells", "value": "72.1% ± 1.8%"}, {"measurement": "cell lethality percentage", "setting": "MCF-10A cells", "value": "8.9% ± 1.5%"}, {"measurement": "cell lethality percentage", "setting": "A431 cells", "value": "67.3% ± 2.7%"}, {"measurement": "PARP1 WB Gray Value", "setting": "PARP1; 5 µM", "value": 43160.066}, {"measurement": "PARP1 WB Normalized", "setting": "PARP1; 5 µM", "value": 0.9844}, {"measurement": "PARP1 WB Gray Value", "setting": "PARP1; 10 µM", "value": 33044.409}, {"measurement": "PARP1 WB Normalized", "setting": "PARP1; 10 µM", "value": 0.759}, {"measurement": "PARP1 WB Gray Value", "setting": "PARP1; 20 µM", "value": 24731.459}, {"measurement": "PARP1 WB Normalized", "setting": "PARP1; 20 µM", "value": 0.7232}, {"measurement": "expression level of PARP1", "setting": "PARP1; MCF-7, upon treatment", "value": "decreased"}, {"measurement": "percentage of cells in G0/G1 phase", "setting": "MCF-7 cells [1]", "value": 85.67, "unit": "%"}, {"measurement": "melting temperature (Tm) of EGFR kinase domain", "setting": "EGFR kinase domain", "value": 54.2, "unit": "°C"}, {"measurement": "IC50", "setting": "EGFR L858R", "value": "3.1 ± 0.1", "unit": "nM"}, {"measurement": "apoptosis ratio (lower right quadrant, early apoptosis: PI negative, annexin V-FITC positive)", "setting": "MCF-7 cells [2]; 5 μM", "value": 12.10, "unit": "%"}, {"measurement": "apoptosis ratio (lower right quadrant, early apoptosis: PI negative, annexin V-FITC positive)", "setting": "MCF-7 cells [2]; 10 μM", "value": 14.37, "unit": "%"}, {"measurement": "apoptosis ratio (lower right quadrant, early apoptosis: PI negative, annexin V-FITC positive)", "setting": "MCF-7 cells [2]; 20 μM", "value": 19.24, "unit": "%"}]}
